Consider 6 compounds from US20220062233A1 (The Board of Trustees of the Leland Stanford Junior …, priority 2018, published 2022).

The subject of data set [1] is Gmr::HTT97Q fly (mutant HTT, rough eye). The data set is described as follows: HD-Drosophila phenotypic assay (rough eye analysis). In kind it is in vivo, Drosophila melanogaster. To be noted: Gmr-HTT97Q flies, compound 10 μM in media. An excerpt: D. Alleviation of Neuron Degeneration Phenotypes of Mutant HTT in Drosophila HD Models
The Drosophila melanogaster (fruit fly) HD models carry the coding sequence of human HTT exon1 with 97 CAG repeats to mimic mutant HTT of Huntington's disease (HD). The Gmr::HTT97Q fly, expressing mutant HTT primarily in the neurons of Drosophila compound eyes, has a severe degeneration of photoreceptor neurons and the phenotypic trait ‘rough eye’. All of the fly stocks and genetics crosses are maintained at 25° C. on standard cornmeal yeast agar media.
b. Eye Morphology (Rough Eye) Analysis
Fifteen adult male flies (Gmr-HTT97Q/Gmr-HTT97Q or Gmr/Gmr) are crossed with 15 virgin female flies W1118(+/+) in a vial containing standard yeast agar media with the compound in a concentration of 10 μM. Parent-flies are removed from vials at day 7, followed by a collection of newly hatched flies for ‘rough eye’ analysis. The morphology of compound eyes is captured using a Leica DMR upright microscope equipped with a digital camera (CoolSNAP 5.0, Photometrics). To increase the depth of field, imaging software is used to create montage composite images (Helicon Focus, HeliconSoft). A total of 10 flies are collected for analysis in each individual condition, and the biological experiment is conducted three times. DMSO, the reagent solvent of the compound, is included as a control.

Data set [2] can be described thus: In vivo pharmacokinetics and brain penetration, single dose, rat. As to the method: (§1) B. In Vivo Pharmacokinetics and Brain Penetration
(§2) The pharmacokinetic assessment was carried out in rodents (e.g. Sprague-Dawley rats or C57BL6 mice) after a single dose administration by IV (e.g., 0.5 mg/kg) or PO (e.g., 5 mg/kg). Biological samples were collected at pre-determined time points, batch-processed, and the test articles were extracted and quantified with LC-MS, utilizing internal standards and separately prepared calibration curves. Blood (or plasma) concentration to time profiles were acquired for compounds and a selected list is presented in Table 6 with the non-compartmental PK parameters (e.g., peak concentration in circulation (Cmax), absolute bioavailability (Fabs), elimination half-life, clearance (CL), and volume of distribution at steady state (Vdss)). Upon terminal collection, the brains were also collected and homogenized in an extraction buffer, followed by quantification with LC-MS. After brain concentration levels (ng/g of brain tissue) were determined, the mean ratios of the brain-to-blood (BB) concentration (or brain-to-plasma concentration) at various collection time points were averaged, then shown in Table 6 as BB Ratio to indicate the extent of brain penetration.

Data set [3] can be described thus: In vivo pharmacokinetics and brain penetration, single dose, mouse. To be noted: for clearance / half-life / Vd / Cmax: C57BL6, blood; for clearance / half-life / Vd: intravenous, 0.5 mg/kg; for clearance / half-life / Vd / Cmax / Kp / Fabs (%): Mouse; for clearance / half-life / Vd / Cmax / Kp: single dose; for half-life: read-out: Elimination Half-life (converted); for Vd: read-out: Vdss; for Cmax: oral, 5 mg/kg, read-out: Cmax (maximum concentration in blood or plasma); for Kp: C57BL6, brain / blood, averaged over collection time points, read-out: BB_Ratios (brain-to-blood concentration ratio); for Fabs (%): single dose IV/PO. As to the method: as §1, §2
FIG. 1A is a graph showing in vitro mouse hepatocyte stability on compound #2 (closed circle) and compound #42 (open circle). FIG. 1B is a graph showing blood concentration-time profile of mouse (N=3 per group) after IV administration of 0.5 mg/kg of compound #2 (closed circle) or #42 (open circle), or PO administration of 5 mg/kg of compound #2 (closed triangle) or #42 (open triangle).

Another data set has as its system mutant HTT. The data set is described as follows: Mutant HTT assay in induced pluripotent stem cells (iPSC). It is filed as cell-based, human. To be noted: HD patient iPSCs, one day incubation; class symbols; read-out: iPSC IC20 (nM) mHTT. In a few lines:
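Huntington's disease patient iPSCs (ND50036) plated at 7,000 cells/well, compound-treated after 48 h for one day in mTeSR1. Lysates normalised by BCA protein, then mutant HTT measured by sandwich ELISA: anti-human HTT capture, biotinylated mutant-HTT-specific detection, streptavidin-HRP/TMB colorimetric readout, interpolated from a standard curve.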

Data set [4] has as its system Huntington's disease patient iPSCs (ND50036). The data set is described as follows: iPSC viability at IC20. It is filed as cell-based, human. To be noted: at the concentration of IC20.
The mark [5] stands for this setting: mouse, PO 5 mg/kg, compound #42 versus #2.

For the compound `OCc1ccc(CNC2CCCc3c2[nH]c2ccc(Br)cc32)cc1` (centres unmarked) [Compound 1], in data set [1], the “HD-Drosophila Phenotypic assay (rescue of rough eye phenotype)” value is given as “& (rough eye phenotype of HD flies is rescued by testing compound greater than 40%)”. Moreover, the Kp in data set [2] (Sprague-Dawley, brain / blood, single dose, averaged over collection time points, read-out: BB_Ratios (brain-to-blood concentration ratio)) was at least 1. In data set [2] (Sprague-Dawley, in vivo, intravenous, single dose), the clearance is 85 mL/min/kg. The Vd in data set [2] (Sprague-Dawley, in vivo, intravenous, single dose, read-out: Vdss) was 12 L/kg. Moreover, the Cmax in data set [2] (Sprague-Dawley, in vivo, single dose, read-out: Cmax (maximum concentration in blood or plasma)) was 100 to 300 nM. The half-life in data set [2] (Sprague-Dawley, in vivo, single dose, read-out: Elimination Half-life (converted)) is 1.9 h. The “Fabs (%)” value in data set [2] (single dose IV/PO) is listed as below 30%.

With `OCCOCc1ccc(CN[C@@H]2CCCc3c2[nH]c2ccc(Br)cc32)cc1` (single isomer, unassigned) [Compound 28], in data set [3], the clearance was 16.7 mL/min/kg, the half-life was 2.4 h, the Vd was determined as 3.3 L/kg and the Cmax was above 300 nM. In addition, in data set [3], the Kp is at least 1 and the “Fabs (%)” value is listed as above 70%. For the same compound, the IC20 in the data set on mutant HTT is below 100 nM. Moreover, the “iPSC viability at IC20” value in data set [4] is reported as “+ (cell viability is greater than 75% at the concentration of IC20)”.

Take `OCc1ccc(CN[C@@H]2CCCc3c2[nH]c2ccc(Br)cc32)cc1` [Compound 2, (R)-(4-(((6-bromo-2,3,4,9-tetrahydro-1H-carbazol-1-yl)amino)methyl)phenyl)methanol]: in data set [1], the “HD-Drosophila Phenotypic assay (rescue of rough eye phenotype)” value is given as “& (rough eye phenotype of HD flies is rescued by testing compound greater than 40%)”. Besides, in data set [3], the clearance is 183 mL/min/kg, the half-life is 0.8 h, the Vd was determined as 11 L/kg and the Cmax was below 100 nM. In data set [3], the “Fabs (%)” value is below 30%. Further, the IC20 in the data set on mutant HTT was below 100 nM. Moreover, in data set [4], the “iPSC viability at IC20” value is “+ (cell viability is greater than 75% at the concentration of IC20)”.

Consider `[2H]C([2H])(O)c1ccc(CN[C@@H]2CCCc3c2[nH]c2ccc(Br)cc32)cc1` [Compound 42, (R)-(4-(((6-bromo-2,3,4,9-tetrahydro-1H-carbazol-1-yl)amino)methyl)phenyl)methan-d2-ol], for which, in data set [3], the clearance is 80 mL/min/kg, the half-life is 1.2 h, the Vd is 7.2 L/kg and the Cmax lay in the range of 100 to 300 nM. Also, in data set [3], the “Fabs (%)” value is reported as below 30%. Moreover, the “elimination half-life (comparison)” value in data set [3] (mouse, IV 0.5 mg/kg, compound #42 versus #2, FIG. 1B) was “longer”. In addition, in data set [3] (setting [5]), the “Cmax (comparison)” value was “significantly increased” and the “Fabs (comparison)” value is listed as “significantly increased”. In addition, the “CL (comparison)” value in data set [3] (mouse, randomized cross-over after 48-hour washout, compound #42 versus #2) was “slower CL”. In addition, in the data set with mutant HTT, the IC20 was below 100 nM. For the same compound, the “iPSC viability at IC20” value in data set [4] is on record as “+ (cell viability is greater than 75% at the concentration of IC20)”.

`CC(C)(O)c1ccc(CN[C@@H]2CCCc3c2[nH]c2ccc(Br)cc32)cc1` [Compound 31, (R)-2-(4-(((6-bromo-2,3,4,9-tetrahydro-1H-carbazol-1-yl)amino)methyl)phenyl)propan-2-ol]: in data set [3], the clearance is 50 mL/min/kg, the half-life was 2.6 h, the Vd stood at 9.1 L/kg and the Cmax lay in the range of 100 to 300 nM. Besides, in data set [3], the Kp is at least 1 and the “Fabs (%)” value is reported as 30-70%. Further, the IC20 in the data set on mutant HTT is below 100 nM. In data set [4], the “iPSC viability at IC20” value was “+ (cell viability is greater than 75% at the concentration of IC20)”.

Consider `CS(=N)(=O)c1ccc(CN[C@@H]2CCCc3c2[nH]c2ccc(Br)cc32)cc1` (stereo partly drawn) [Compound 49, (4-((((R)-6-bromo-2,3,4,9-tetrahydro-1H-carbazol-1-yl)amino)methyl)phenyl)(imino)(methyl)-λ^6-sulfanone], for which, in data set [3], the clearance is 55 mL/min/kg, the half-life was 1.1 h, the Vd stood at 5.1 L/kg and the Cmax is above 300 nM. Also, in data set [3], the Kp was at least 1 and the “Fabs (%)” value is below 30%. Besides, the IC20 with mutant HTT was below 100 nM. Moreover, the “iPSC viability at IC20” value in data set [4] is “+ (cell viability is greater than 75% at the concentration of IC20)”.
